Experimental data published in patent EP4678639A1, “SALT OF BENZIMIDAZOLE DERIVATIVE” (JW Pharmaceutical Corporation, priority 2023, dated 2024).
Entries after “also recorded” stand apart in the source; their conditions may differ. Where a name gives a salt, the structure may show the parent alone.

How the values were obtained:
[1] = Stability test by formulation (tablets and orally disintegrating tablets, 60 °C or 90 % RH); assay type: physicochemical; conditions: tablets and orally disintegrating tablets prepared with the named salt, versus reference drug
Description: The amount of total related substances under stress storage conditions (temperature/humidity) was measured using liquid chromatography (HPLC) using an Infinity 1260 (Agilent) equipment. The analysis conditions are as follows.
To minimize the influence of additives, each test formulation was selected with the same additives as the reference drug (K-CAB tablets 50 mg, K-CAB orally disintegrating tablets 50 mg) disclosed in the Ministry of Food and Drug Safety Pharmaceutical Integrated Information System, and to minimize differences due to the granule manufacturing process, the formulation was prepared using the simple mixing (direct compression) method. Each formulation was as shown in Tables 16 and 17 below, and the stability conditions were conducted for each formulation under the storage conditions of 60 °C, which is a stress temperature condition, and 90 % RH, which is a stress humidity condition, respectively.
Stability tests were conducted under stress storage conditions (temperature/humidity) for each formulation. The results of measuring the amount of total related substances after storage under stress conditions for 1 week or 3 weeks are shown in FIG. 18 and FIG. 19.

[2] = Solid-state stress stability test (humidity 90 % RH); conditions: for Remarks: state of the solid; for Initial (%) Degradant / Initial (%) Total Related substances: Table 9, initial
Description: (§1) Operation and Calculation: The blank solution, standard solution, and test solution were sequentially tested under the instrument operating conditions according to the liquid chromatography method in the General Test Methods of the 12th Edition of the Korean Pharmacopoeia, and the amount of related substances was calculated using the following equation. Amount of each related; substance (%) = (AT)/(AS) × (CS)/(CT) × (Molecular weight; of the sample)/(Molecular weight; of the standard; product) × P × (1)/(RR; F) [formula] AT = Area of each related substance peak obtained from the test solution AS = Area of the tegoprazan peak obtained from the standard solution CS = Concentration of standard solution (mg/mL) CT = Concentration of test solution (mg/mL) P = Purity/Assay/Potency (%) of standard product RRF = Relative response factor (1.0)
(§2) A solid-state stability comparative test was conducted on each of the above-mentioned prepared tegoprazan acid addition salts. The stability comparative test was conducted for 1 month under the conditions shown in Table 6 below in accordance with The International Council for Harmonisation of Technical Requirements for Pharmaceuticals for Human Use (ICH) guideline, and the purity of the acid addition salt, total related substances, and the content of degradants were measured by HPLC at the initial time point and after 1 month. Total related substances and degradants were measured according to the related substance test method (HPLC).
3) Stress Stability (humidity 90 % RH)

[3] = Liquid stability comparative test (20 mg/mL in purified water, 40 °C, 24 hours, HPLC); assay type: physicochemical; conditions: for After 24 hours Purity (%) / Initial Purity (%) / After 24 hours Degradant (%) / Initial Degradant (%): 20 mg/mL in purified water; for Initial Purity (%) / Initial Degradant (%): initial time point; for After 24 hours Degradant (%) / Initial Degradant (%): degradant of Formula 4; for solid precipitation / solution state: stored at 40 °C for 24 hours
Description: The analysis conditions are as follows.
Each sample was dissolved in purified water to prepare a solution with a concentration of 20 mg/mL, stored at an external temperature of 40 °C, and analyzed by HPLC at the initial time point and after 24 hours to measure purity, and the change in the generated degradant (Formula 4) was measured. The analysis of total related substances and degradants was performed by taking a liquid from a solution prepared at a concentration of 20 mg/mL, diluting it to a concentration of 4 mg/mL with the diluent of the related substance test method (HPLC), and measuring it as a test solution, and analyzing it according to the related substance test method (HPLC).

[4] = Solid-state accelerated stability test (40 ± 2 °C/RH 75 ± 5 %); conditions: for Change (%) Degradant: 1 month vs initial; for Initial (%) Degradant: degradant of Formula 4
Description: as §1, §2

[5] = Photostability test, visible light (1.2 Mlux·hr) exposure; conditions: for Change (%) Degradant: Table 11, after exposure vs initial; for After (%) Degradant / After (%) Total Related substances: Table 11 under heading Visible Light (1.2 Mlux-hr) Exposure Test
[6] = Raw material stability test versus tegoprazan freebase (60 °C or 90 % RH); assay type: physicochemical
[7] = Photostability test, ultraviolet light (200 W·hr/m2) exposure; conditions: for After Ultraviolet Light Exposure (200 W hr/m2)(%) Degradant / After Ultraviolet Light Exposure (200 W hr/m2)(%) Total Related substances: Table 10, UV 200 W·hr/m2, PE bag; for Change (%) Degradant: Table 10, after UV exposure vs initial; for Initial (%) Degradant / Initial (%) Total Related substances: Table 10, initial
Description: A photostability comparative test was conducted on each of the above-mentioned prepared tegoprazan acid addition salts. The test was conducted by exposing the sample to light with an energy of 200 W hr/m^2 of ultraviolet light and 1.2 Mlux hr of visible light in accordance with The International Council for Harmonisation of Technical Requirements for Pharmaceuticals for Human Use (ICH) guideline, with the samples packaged in a single PE bag and spread thinly enough to ensure exposure to the light source, taking humidity stability into consideration. The purity of the acid addition salts and the change in the amount of degradants at the initial time point and after exposure to ultraviolet light or visible light were measured by HPLC.

[8] = Solid-state stress stability test (temperature 60 °C); conditions: for Change (%) Degradant: 1 month vs initial; for Initial (%) Degradant / Initial (%) Total Related substances: Table 8, initial
Description: as §1, §2
2) Stress Stability Test (temperature 60 °C)

[9] = liquid stability, 40 °C, 24 hours
[10] = 40 ± 2 °C / RH 75 ± 5 %, 1 month

Cc1nc2c(O[C@H]3CCOc4cc(F)cc(F)c43)cc(C(=O)N(C)C)cc2[nH]1 [Sulfate Salt]
amount of total related substances generated (FIGS. 18 and 19) ([1]; 60 °C or 90 % RH, 1 or 3 weeks): significantly increased | degree of weight gain (FIG. 17) ([1]; 90 % RH, 3 weeks): greater | After 1 Month (%) Degradant ([2]; 90 % RH, 1 month): 14.500% | After 1 Month (%) Total Related substances ([2]; 90 % RH, 1 month): 16.637% | Change (%) Degradant ([2]; 90 % RH, 1 month vs initial): 14.161% | Remarks ([2]; 90 % RH, 1 month): Polymorp hic Transition | polymorphic transition (PXRD) ([2]; 90 % RH, after 1 month): polymorphic transition occurred | Initial (%) Degradant [2]: 0.339% | Initial (%) Total Related substances [2]: 0.609% | After 24 hours Purity (%) ([3]; 40 °C, 24 hours): 93.95% | Initial Purity (%) [3]: 99.89% | After 24 hours Degradant (%) ([3]; 40 °C, 24 hours): 5.414% | Initial Degradant (%) [3]: 0.080% | Amount of Change Degradant (%) ([3]; initial vs after 24 hours at 40 °C): 5.33% | degradants formed after 24 hours of storage [3, 9]: ≥ 5% | purity decreased [3, 9]: about 6% | After 1 Month (%) Degradant [4, 10]: 0.712% | After 1 Month (%) Total Related substances [4, 10]: 1.197% | Change (%) Degradant ([4]; 40 ± 2 °C / RH 75 ± 5 %): 0.373% | Remarks ([4]; 40 ± 2 °C / RH 75 ± 5 %, 1 month, appearance): Discolorat ion | Initial (%) Total Related substances ([4]; Table 7, initial): 0.609% | Initial (%) Degradant ([4]; Table 7, initial): 0.339% | increase in total related substances after 1 month ([4]; accelerated stability): ≥ 0.3% | change in appearance of the solid ([4]; accelerated stability, 1 month): discoloration | Change (%) Degradant [5]: 1.934% | Initial (%) Degradant ([5]; Table 11, initial): 0.339% | Initial (%) Purity ([5]; Table 11, initial): 99.3% | Initial (%) Total Related substances ([5]; Table 11, initial): 0.609% | After (%) Degradant [5]: 2.273% | After (%) Total Related substances [5]: 2.754% | change in appearance, 60 °C ([6]; 60 °C, 3 weeks): Pungent odor | change in appearance, 90 % RH ([6]; 90 % RH, 3 weeks): Pungent odor | change in appearance, Initial ([6]; initial): Pungent odor | amount of total related substances generated (FIG. 13) ([6]; stress temperature/humidity storage, compared to tegoprazan freebase): significantly increased | After Ultraviolet Light Exposure (200 W hr/m2)(%) Degradant [7]: 1.415% | After Ultraviolet Light Exposure (200 W hr/m2)(%) Total Related substances [7]: 1.748% | Change (%) Degradant [7]: 1.076% | Initial (%) Degradant [7]: 0.339% | Initial (%) Total Related substances [7]: 0.609% | After 1 Month (%) Degradant ([8]; 60 °C, 1 month): 2.345% | After 1 Month (%) Total Related substances ([8]; 60 °C, 1 month): 3.441% | change in appearance, change in the color of the solid ([8]; 60 °C, 1 month): change in appearance | Change (%) Degradant ([8]; 60 °C): 2.006% | Remarks ([8]; 60 °C, 1 month, appearance): Discolorat ion | Initial (%) Degradant [8]: 0.339% | Initial (%) Total Related substances [8]: 0.609%

Cc1nc2c(O[C@H]3CCOc4cc(F)cc(F)c43)cc(C(=O)N(C)C)cc2[nH]1 [Pidolate Salt]
Remarks ([2]; 90 % RH, 1 month): Melted | absorb moisture and deliquesce / melted ([2]; 90 % RH, listed as pidolate): deliquesced | absorb moisture and deliquesce / melted ([2]; 90 % RH, listed as pidolate salt): absorb moisture and deliquesce; also recorded: melted | Initial (%) Degradant [2]: 0.001% | Initial (%) Total Related substances [2]: 0.145% | Change in Quality (%) 90 % RH (4 weeks) Degradant ([2]; Table 12 summary): Melted | Change in Quality (%) 90 % RH (4 weeks) Purity ([2]; Table 12 summary): Melted | After 24 hours Purity (%) ([3]; 40 °C, 24 hours): Solid precipitated | Initial Purity (%) [3]: 99.98% | After 24 hours Degradant (%) ([3]; 40 °C, 24 hours): Solid precipitated | solid precipitation / solution state ([3]; listed as pidolate): a solid precipitated | solid precipitation / solution state ([3]; listed as pidolate salt): solid precipitation; also recorded: solids were precipitated | After 1 Month (%) Degradant [4, 10]: 0.003% | After 1 Month (%) Total Related substances [4, 10]: 0.146% | Change (%) Degradant ([4]; 40 ± 2 °C / RH 75 ± 5 %): 0.002% | Initial (%) Total Related substances ([4]; Table 7, initial): 0.145% | Initial (%) Degradant ([4]; Table 7, initial): 0.001% | Change in Quality (%) Accelerated (4 weeks) Degradant ([4]; Table 12 summary): 0.002% | Change in Quality (%) Accelerated (4 weeks) Purity ([4]; Table 12 summary): -0.001% | purity change after 1 month ([4]; accelerated stability): ≤ 0.1% | Change (%) Degradant [5]: 0.067% | Initial (%) Degradant ([5]; Table 11, initial): 0.001% | Initial (%) Total Related substances ([5]; Table 11, initial): 0.145% | After (%) Degradant [5]: 0.068% | After (%) Total Related substances [5]: 0.463% | Change in Quality (%) Light (Visible) Degradant ([5]; Table 12 summary): 0.067% | After Ultraviolet Light Exposure (200 W hr/m2)(%) Degradant [7]: 0.020% | After Ultraviolet Light Exposure (200 W hr/m2)(%) Total Related substances [7]: 0.266% | Change (%) Degradant [7]: 0.019% | Initial (%) Degradant [7]: 0.001% | Initial (%) Total Related substances [7]: 0.145% | Change in Quality (%) Light (Ultraviolet) Degradant ([7]; Table 12 summary): 0.019% | Change in Quality (%) Light (Ultraviolet) Purity ([7]; Table 12 summary): 0.121% | After 1 Month (%) Degradant ([8]; 60 °C, 1 month): 0.088% | After 1 Month (%) Total Related substances ([8]; 60 °C, 1 month): 0.353% | Change (%) Degradant ([8]; 60 °C): 0.087% | Initial (%) Degradant [8]: 0.001% | Initial (%) Total Related substances [8]: 0.145% | Change in Quality (%) 60 °C (4 weeks) Degradant ([8]; Table 12 summary): 0.087% | Change in Quality (%) 60 °C (4 weeks) Purity ([8]; Table 12 summary): -0.208%

Cc1nc2c(O[C@H]3CCOc4cc(F)cc(F)c43)cc(C(=O)N(C)C)cc2[nH]1 [Phosphate Salt]
absorb moisture and deliquesce / melted ([2]; 90 % RH): absorb moisture and deliquesce | Remarks ([2]; 90 % RH, 1 month): Melted | Initial (%) Degradant [2]: 0.085% | Initial (%) Total Related substances [2]: 0.254% | After 24 hours Purity (%) ([3]; 40 °C, 24 hours): Solid precipitated | Initial Purity (%) [3]: 99.97% | After 24 hours Degradant (%) ([3]; 40 °C, 24 hours): Solid precipitated | Initial Degradant (%) [3]: 0.010% | solid precipitation / solution state [3]: solid precipitation | After 1 Month (%) Degradant [4, 10]: 0.205% | After 1 Month (%) Purity [4, 10]: 99.6% | After 1 Month (%) Total Related substances [4, 10]: 0.327% | Change (%) Degradant ([4]; 40 ± 2 °C / RH 75 ± 5 %): 0.120% | Initial (%) Purity ([4]; Table 7, initial): 99.7% | Initial (%) Total Related substances ([4]; Table 7, initial): 0.254% | Initial (%) Degradant ([4]; Table 7, initial): 0.085% | Change (%) Degradant [5]: 0.055% | Initial (%) Degradant ([5]; Table 11, initial): 0.085% | Initial (%) Total Related substances ([5]; Table 11, initial): 0.254% | After (%) Degradant [5]: 0.140% | After (%) Total Related substances [5]: 0.449% | After Ultraviolet Light Exposure (200 W hr/m2)(%) Degradant [7]: 0.096% | After Ultraviolet Light Exposure (200 W hr/m2)(%) Total Related substances [7]: 0.277% | Change (%) Degradant [7]: 0.011% | Initial (%) Degradant [7]: 0.085% | Initial (%) Total Related substances [7]: 0.254% | After 1 Month (%) Degradant ([8]; 60 °C, 1 month): 1.668% | After 1 Month (%) Total Related substances ([8]; 60 °C, 1 month): 2.423% | Change (%) Degradant ([8]; 60 °C): 1.583% | Initial (%) Degradant [8]: 0.085% | Initial (%) Total Related substances [8]: 0.254%
